For 6 compounds, normalised response results are on record in the supplement of paper PMC4862054.

Common to all, as to test: normalised response (% of control), CellTiter-Glo; higher = more viable cells (100 = DMSO, 0 = benzethonium chloride kill control)
Holding throughout (conditions): incubation time: 72 h
(In ATP-based viability assays light output follows the ATP content of the culture.)

In one experiment the test system is BT-474. In a few lines: (§1)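 Two readouts were taken after 72 h: CellTox Green fluorescence (485/520 nm) first, then CellTiter-Glo luminescence after 10 min at room temperature. Breast cancer cell lines had been seeded as 20 µl suspension into 384-well plates holding compound at 5 concentrations in 10-fold steps across a compound-specific 10,000-fold range. Each value is a normalised signal at a single concentration, with plates scaled to 0.1 % DMSO (100) and a positive kill control (0).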

Another experiment has as its system BT-549. The gist of the method: as §1
Another experiment has as its system CAL-120. In a few lines:
as §1

For another experiment, the system named is CAL-148. The gist of the method:
as §1

For another experiment, the system named is CAL-51. In a few lines: as §1
Another experiment deals with CAL-85-1. In a few lines:
as §1

The next experiment relates to DU-4475. The gist of the method: as §1
The next experiment has as its system HCC1143. The gist of the method: as §1
In another experiment the test system is HCC1599. The gist of the method:
as §1

The subject of the next experiment is HCC1937. In a few lines:
as §1

In the next experiment the test system is HDQ-P1. In a few lines:
as §1

In a further experiment the test system is Hs578T. In a few lines: as §1
For a further experiment, the system named is MCF-10A. The gist of the method: as §1
For the next experiment, the system named is MDA-MB-231. The gist of the method: as §1
A further experiment concerns MDA-MB-436. The gist of the method:
as §1

In another experiment the test system is MDA-MB-453. In a few lines: as §1
The next experiment concerns MDA-MB-468. In a few lines:
as §1

The subject of the next experiment is MFM-223. The gist of the method:
as §1

Turning to `C=C1C[C@@H]2[C@H](CC[C@]3(C)C(=O)CC[C@@H]23)[C@@]2(C)C=CC(=O)C=C12` [Exemestane] (10 nM), the normalised response was determined as 21% in the experiment on BT-474; 98% in the experiment with BT-549; 98% with CAL-120; 109% in the experiment with CAL-148; 70.2% with CAL-51; 108% in the experiment with CAL-85-1. For the same compound, the normalised response in the experiment with DU-4475 worked out at 106%; in the experiment with HCC1143, 99.7%; in the experiment on HCC1599 it was 99.1%; in the experiment on HCC1937 it was 103%; in the experiment with HDQ-P1, 98.9%; with Hs578T, 99.7%. Besides, the normalised response in the experiment on MCF-10A was 116%; in the experiment with MDA-MB-231 it was 106%; in the experiment on MDA-MB-436, 104%; with MDA-MB-453, 116%; with MDA-MB-468, 109%; with MFM-223, 108%.

As to `Cc1cc(Nc2cc(CN3CCOCC3)c3nc(C)c(Cc4ccc(Cl)cc4F)n3n2)n[nH]1` [Gandotinib] (10 nM), the normalised response in the experiment on BT-474 was found to be 106%; in the experiment on BT-549, 100%; in the experiment with CAL-120, 98.2%; with CAL-148, 110%; with CAL-51, 92%; in the experiment on CAL-85-1, 101%. Further, the normalised response was 104% in the experiment on DU-4475; 102% with HCC1143; 118% in the experiment on HCC1599; 94.2% with HCC1937; 106% in the experiment on HDQ-P1; 99.5% in the experiment with Hs578T. The normalised response with MCF-10A was determined as 108%; with MDA-MB-231, 102%; in the experiment with MDA-MB-436, 104%; with MDA-MB-453, 99.3%; in the experiment with MDA-MB-468, 101%; with MFM-223, 105%.

As to `O=C(Nc1ccncc1)C(=O)c1cn(Cc2ccc(Cl)cc2)c2ccccc12` [Indibulin] (10 nM), the normalised response in the experiment on BT-474 was 112%; in the experiment with BT-549, 93.5%; in the experiment on CAL-120, 92.6%; in the experiment with CAL-148, 109%; in the experiment with CAL-51 it was 86.5%; with CAL-85-1 it was 99.9%. In addition, the normalised response with DU-4475 was found to be 105%; in the experiment on HCC1143, 100%; with HCC1599 it was 93.4%; in the experiment with HCC1937 it was 98.2%; in the experiment on HDQ-P1, 94.1%; with Hs578T, 104%. Moreover, the normalised response came to 102% in the experiment with MCF-10A; 104% in the experiment with MDA-MB-231; 99.2% with MDA-MB-436; 95% in the experiment on MDA-MB-453; 102% with MDA-MB-468; 107% in the experiment on MFM-223.

Turning to `Cc1ccc(NC(=O)c2ccc(CN3CCN(C)CC3)cc2)cc1Nc1nc(-c2cccnc2)cs1` [Masitinib] (10 nM), the normalised response amounted to 102% with BT-474; 101% in the experiment on BT-549; 91.5% in the experiment on CAL-120; 108% in the experiment with CAL-148; 99.4% with CAL-51; 99.7% in the experiment with CAL-85-1. Also, the normalised response came to 102% in the experiment with DU-4475; 98.4% with HCC1143; 93.8% with HCC1599; 97.4% in the experiment on HCC1937; 93.6% with HDQ-P1; 98.8% with Hs578T. In addition, the normalised response with MCF-10A was 104%; in the experiment on MDA-MB-231, 100%; in the experiment with MDA-MB-436, 101%; with MDA-MB-453 it was 113%; in the experiment on MDA-MB-468 it was 108%; in the experiment on MFM-223 it was 105%.

With `Cc1[nH]c2ccccc2c1CCNCc1ccc(/C=C/C(=O)NO)cc1` [Panobinostat] (1 nM), the normalised response in the experiment on BT-474 amounted to 103%; with BT-549, 101%; in the experiment on CAL-120, 101%; in the experiment with CAL-148, 101%; with CAL-51, 118%; in the experiment with CAL-85-1, 104%. Further, the normalised response with DU-4475 was 99.1%; in the experiment on HCC1143 it was 104%; in the experiment on HCC1599, 100%; in the experiment on HCC1937 it was 96.5%; in the experiment with HDQ-P1, 102%; with Hs578T, 98.7%. The normalised response in the experiment with MCF-10A was determined as 99.9%; in the experiment with MDA-MB-231, 102%; in the experiment with MDA-MB-436 it was 107%; in the experiment on MDA-MB-453, 92.8%; in the experiment on MDA-MB-468, 103%; in the experiment on MFM-223 it was 100%.

Regarding `COCC1(CO)C(=O)C2CCN1CC2` (stereo not drawn) [Prima-1 Met] (10 nM), the normalised response was found to be 103% in the experiment with BT-474; 93.7% in the experiment on BT-549; 92.4% in the experiment on CAL-120; 102% in the experiment on CAL-148; 124% in the experiment on CAL-51; 103% in the experiment on CAL-85-1. The normalised response in the experiment on DU-4475 worked out at 109%; with HCC1143, 103%; with HCC1599, 92.7%; in the experiment on HCC1937, 99%; in the experiment with HDQ-P1 it was 95.1%; in the experiment on Hs578T it was 103%. In addition, the normalised response with MCF-10A was 107%; in the experiment with MDA-MB-231 it was 103%; with MDA-MB-436, 101%; in the experiment on MDA-MB-453, 111%; with MDA-MB-468, 102%; in the experiment on MFM-223 it was 103%.
